From US20190099421A1, “CINNOLIN-4-AMINE COMPOUNDS AND THEIR USE IN TREATING CANCER” (AstraZeneca AB, priority 2016, published 2019)

Biological target: T1, ATM (Homo sapiens, UniProt Q13315)
T1 construct: endogenous in cells; host or cells: HT29 cells (ECACC #85061109)
Experiment: Assay a): ATM cellular potency (pATM Ser1981 in irradiated HT29 cells)
Type: cell-based
Conditions: 1 h compound incubation, X-ray irradiation ~600 cGy, pATM (Ser1981) staining 1 h later; read-out: Assay a) ATM Cell IC50
Description: IC50 values were calculated using a smart fitting model in Genedata.
Most ATM molecules in the cell are rapidly phosphorylated on this site after doses of radiation as low as 0.5 Gy, and binding of a phosphospecific antibody is detectable after the introduction of only a few DNA double-strand breaks in the cell.
The rationale of the pATM assay is to identify inhibitors of ATM in cells. HT29 cells are incubated with test compounds for 1 hr prior to X-ray-irradiation. 1 h later the cells are fixed and stained for pATM (Ser1981). The fluorescence is read on the arrayscan imaging platform.
The following morning compounds of Formula (I) in 100% DMSO were added to assay plates by acoustic dispensing. After 1 h incubation at 37° C. and 5% CO2, plates (up to 6 at a time) were irradiated using the X-RAD 320 instrument (PXi) with equivalent to ˜600 cGy. Plates were returned to the incubator for a further 1 h. […] Then 20 μl of 0.1% Triton X100 in PBS was added and incubated for 20 minutes at r.t., to permeabalise cells. Then the plates were washed once with 50 μl/well PBS, using a Biotek EL405 plate washer.
After 1 h incubation at r.t., the plates were washed three times with 50 μl/well PBS, using a Biotek EL405 plate washer, and plates were sealed and kept in PBS at 4° C. until read. Plates were read using an ArrayScan VTI instrument, using an XF53 filter with 10× objective.

T1 sequence (Q13315 whole entry): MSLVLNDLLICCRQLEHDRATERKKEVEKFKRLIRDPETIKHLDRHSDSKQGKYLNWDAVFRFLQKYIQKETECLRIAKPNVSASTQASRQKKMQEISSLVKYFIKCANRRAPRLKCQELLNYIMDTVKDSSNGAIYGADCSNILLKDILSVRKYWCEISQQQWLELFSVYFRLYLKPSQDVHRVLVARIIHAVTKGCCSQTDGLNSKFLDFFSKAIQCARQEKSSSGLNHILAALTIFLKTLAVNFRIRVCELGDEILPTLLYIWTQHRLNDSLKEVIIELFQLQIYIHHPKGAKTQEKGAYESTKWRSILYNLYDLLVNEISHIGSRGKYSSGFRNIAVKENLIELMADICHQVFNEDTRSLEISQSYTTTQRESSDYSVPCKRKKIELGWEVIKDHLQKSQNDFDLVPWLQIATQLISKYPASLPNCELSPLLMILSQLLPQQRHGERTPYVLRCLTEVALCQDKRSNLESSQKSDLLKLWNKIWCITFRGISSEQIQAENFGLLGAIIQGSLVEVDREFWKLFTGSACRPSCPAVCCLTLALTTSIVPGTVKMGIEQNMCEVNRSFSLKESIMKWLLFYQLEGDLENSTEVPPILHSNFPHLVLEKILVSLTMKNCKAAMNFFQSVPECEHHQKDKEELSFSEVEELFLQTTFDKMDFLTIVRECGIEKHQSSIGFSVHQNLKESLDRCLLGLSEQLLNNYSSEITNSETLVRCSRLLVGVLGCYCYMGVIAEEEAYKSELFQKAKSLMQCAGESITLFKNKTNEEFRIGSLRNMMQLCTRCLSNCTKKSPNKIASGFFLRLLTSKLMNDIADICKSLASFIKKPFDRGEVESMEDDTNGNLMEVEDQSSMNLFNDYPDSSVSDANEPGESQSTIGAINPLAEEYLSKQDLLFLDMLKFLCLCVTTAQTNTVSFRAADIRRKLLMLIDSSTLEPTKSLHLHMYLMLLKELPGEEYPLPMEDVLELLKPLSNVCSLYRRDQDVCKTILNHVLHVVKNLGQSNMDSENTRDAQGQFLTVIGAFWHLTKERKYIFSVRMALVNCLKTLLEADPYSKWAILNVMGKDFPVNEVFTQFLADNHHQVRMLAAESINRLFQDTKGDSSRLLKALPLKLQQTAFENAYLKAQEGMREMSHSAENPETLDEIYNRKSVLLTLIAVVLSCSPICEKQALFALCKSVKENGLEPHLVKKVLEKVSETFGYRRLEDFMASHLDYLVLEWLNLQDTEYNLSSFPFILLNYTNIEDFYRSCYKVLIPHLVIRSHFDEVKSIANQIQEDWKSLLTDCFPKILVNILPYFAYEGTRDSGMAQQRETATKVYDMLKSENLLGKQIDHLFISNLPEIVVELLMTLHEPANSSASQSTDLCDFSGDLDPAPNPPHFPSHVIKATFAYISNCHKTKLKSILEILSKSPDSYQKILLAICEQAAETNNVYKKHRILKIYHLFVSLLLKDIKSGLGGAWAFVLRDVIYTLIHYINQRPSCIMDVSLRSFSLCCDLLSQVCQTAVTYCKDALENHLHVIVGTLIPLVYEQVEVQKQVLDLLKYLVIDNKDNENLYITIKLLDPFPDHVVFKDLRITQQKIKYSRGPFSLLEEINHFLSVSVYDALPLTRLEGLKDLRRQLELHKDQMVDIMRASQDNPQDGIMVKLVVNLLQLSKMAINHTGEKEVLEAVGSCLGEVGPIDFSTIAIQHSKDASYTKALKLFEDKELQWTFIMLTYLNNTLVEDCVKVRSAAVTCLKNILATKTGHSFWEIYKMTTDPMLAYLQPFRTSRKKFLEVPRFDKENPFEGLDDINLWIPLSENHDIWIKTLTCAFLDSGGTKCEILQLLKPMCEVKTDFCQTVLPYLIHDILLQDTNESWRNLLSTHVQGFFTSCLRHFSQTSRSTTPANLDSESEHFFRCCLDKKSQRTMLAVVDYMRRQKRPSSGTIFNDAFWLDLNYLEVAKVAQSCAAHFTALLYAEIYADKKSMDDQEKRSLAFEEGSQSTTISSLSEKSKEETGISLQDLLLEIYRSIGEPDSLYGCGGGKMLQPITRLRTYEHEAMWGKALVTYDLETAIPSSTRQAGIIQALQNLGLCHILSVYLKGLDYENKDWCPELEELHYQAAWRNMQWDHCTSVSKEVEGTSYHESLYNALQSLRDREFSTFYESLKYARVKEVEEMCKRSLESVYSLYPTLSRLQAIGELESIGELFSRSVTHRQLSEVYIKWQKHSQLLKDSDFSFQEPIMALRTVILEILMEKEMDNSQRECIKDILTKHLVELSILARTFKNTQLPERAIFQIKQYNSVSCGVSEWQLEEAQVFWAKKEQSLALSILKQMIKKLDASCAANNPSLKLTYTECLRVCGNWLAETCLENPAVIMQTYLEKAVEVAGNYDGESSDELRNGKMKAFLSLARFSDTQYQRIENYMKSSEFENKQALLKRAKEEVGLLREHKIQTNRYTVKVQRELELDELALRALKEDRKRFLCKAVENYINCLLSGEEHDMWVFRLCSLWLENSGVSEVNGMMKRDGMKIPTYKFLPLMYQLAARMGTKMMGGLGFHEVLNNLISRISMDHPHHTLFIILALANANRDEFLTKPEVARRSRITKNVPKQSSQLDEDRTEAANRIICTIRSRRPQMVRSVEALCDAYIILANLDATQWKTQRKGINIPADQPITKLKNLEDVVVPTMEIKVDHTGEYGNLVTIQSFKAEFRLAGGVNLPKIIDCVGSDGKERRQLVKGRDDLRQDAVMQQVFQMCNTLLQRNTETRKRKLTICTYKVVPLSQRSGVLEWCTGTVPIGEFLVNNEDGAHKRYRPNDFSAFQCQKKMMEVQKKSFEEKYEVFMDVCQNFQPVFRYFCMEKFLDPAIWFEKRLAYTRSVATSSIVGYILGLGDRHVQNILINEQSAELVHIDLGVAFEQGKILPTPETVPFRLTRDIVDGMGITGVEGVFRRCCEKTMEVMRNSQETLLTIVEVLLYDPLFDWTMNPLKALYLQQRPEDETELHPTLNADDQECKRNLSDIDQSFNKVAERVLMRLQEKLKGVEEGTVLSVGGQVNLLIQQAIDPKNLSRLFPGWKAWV

Work on `CNCCCOc1ccc(-c2ccc3nnc(C(N)=O)c(N[C@@H](C)C4CCOCC4)c3c2)cn1` [Example 4, 6-[6-(3-Methylaminopropoxy)pyridin-3-yl]-4-[[(1S)-1-(oxan-4-yl)ethyl]amino]cinnoline-3-carboxamide] yielded an IC50 of 7.72 nM.

`CNCCCOc1ccc(-c2ccc3nnc(C(=O)NC)c(N[C@@H](C)C4CCOCC4)c3c2)cn1` [Example 5, N-Methyl-6-[6-(3-methylaminopropoxy)pyridin-3-yl]-4-[[(1S)-1-(oxan-4-yl)ethyl]amino]cinnoline-3-carboxamide] gave an IC50 of 4.91 nM.
